Source: the NIST ThermoML archive (doi:10.1016/j.jct.2016.05.019)
Values joined by “and” are separate entries in the source; they are usually repeats but may differ in a detail not shown here. Equal entries are not always repeated.

Conditions: Liquid; for mass density: Bellows volumetry

CCC(C)C [2-methylbutane]
Conditions | mass density
360 K, 70000 kPa | 638.43 kg/m3
360 K, 80000 kPa | 645.89 kg/m3
360 K, 90000 kPa | 652.93 kg/m3
360 K, 100000 kPa | 659.45 kg/m3
360 K, 120000 kPa | 671.11 kg/m3
360 K, 140000 kPa | 681.34 kg/m3
360 K, 160000 kPa | 691.16 kg/m3
360 K, 180000 kPa | 699.47 kg/m3
360 K, 200000 kPa | 708.18 kg/m3
368.12 K, 98070 kPa | 653.72 kg/m3
368.12 K, 147100 kPa | 681.34 kg/m3
368.12 K, 196130 kPa | 703.04 kg/m3
380 K, 846 kPa | 518.39 kg/m3
380 K, 857 kPa | 518.44 kg/m3
380 K, 962 kPa | 518.87 kg/m3
380 K, 1000 kPa | 518.39 kg/m3
380 K, 1001 kPa | 519.03 kg/m3
380 K, 2000 kPa | 522.38 kg/m3
380 K, 3000 kPa | 526.02 kg/m3
380 K, 5000 kPa | 532.71 kg/m3
380 K, 10000 kPa | 546.59 kg/m3
380 K, 20000 kPa | 567.43 kg/m3
380 K, 30000 kPa | 583.41 kg/m3
380 K, 40000 kPa | 596.53 kg/m3
380 K, 50000 kPa | 607.73 kg/m3
380 K, 60000 kPa | 617.61 kg/m3
380 K, 70000 kPa | 626.4 kg/m3
380 K, 80000 kPa | 634.41 kg/m3
380 K, 90000 kPa | 641.88 kg/m3
380 K, 100000 kPa | 648.74 kg/m3
380 K, 120000 kPa | 661.13 kg/m3
380 K, 140000 kPa | 672.14 kg/m3
380 K, 160000 kPa | 682.07 kg/m3
380 K, 180000 kPa | 691.12 kg/m3
380 K, 200000 kPa | 699.6 kg/m3
400 K, 1250 kPa | 487.6 kg/m3
400 K, 1309 kPa | 487.97 kg/m3
400 K, 1506 kPa | 489.2 kg/m3
400 K, 1611 kPa | 489.83 kg/m3
400 K, 2000 kPa | 491.59 kg/m3 and 492.12 kg/m3
400 K, 3000 kPa | 497.03 kg/m3
400 K, 5000 kPa | 506.33 kg/m3
400 K, 10000 kPa | 524.35 kg/m3
400 K, 20000 kPa | 549.47 kg/m3
400 K, 30000 kPa | 567.78 kg/m3
400 K, 40000 kPa | 582.37 kg/m3
400 K, 50000 kPa | 594.58 kg/m3
400 K, 60000 kPa | 605.35 kg/m3
400 K, 70000 kPa | 614.87 kg/m3
400 K, 80000 kPa | 623.43 kg/m3
400 K, 90000 kPa | 631.33 kg/m3
400 K, 100000 kPa | 638.47 kg/m3
400 K, 120000 kPa | 651.4 kg/m3
400 K, 140000 kPa | 662.94 kg/m3
400 K, 160000 kPa | 673.54 kg/m3
400 K, 180000 kPa | 682.87 kg/m3
400 K, 200000 kPa | 691.58 kg/m3
410 K, 1519 kPa | 470.27 kg/m3
410 K, 1623 kPa | 471.11 kg/m3
410 K, 2000 kPa | 474.02 kg/m3
420 K, 1789 kPa | 450.66 kg/m3
420 K, 1800 kPa | 450.78 kg/m3
420 K, 1904 kPa | 451.92 kg/m3
420 K, 2000 kPa | 452.61 kg/m3 and 452.93 kg/m3
420 K, 3000 kPa | 461.88 kg/m3
420 K, 5000 kPa | 476.16 kg/m3
420 K, 10000 kPa | 500.48 kg/m3
420 K, 20000 kPa | 530.77 kg/m3
420 K, 30000 kPa | 551.51 kg/m3
420 K, 40000 kPa | 567.85 kg/m3
420 K, 50000 kPa | 581.15 kg/m3
420 K, 60000 kPa | 592.84 kg/m3
420 K, 70000 kPa | 602.84 kg/m3
420 K, 80000 kPa | 612.1 kg/m3
420 K, 90000 kPa | 620.5 kg/m3
420 K, 100000 kPa | 628.24 kg/m3
420 K, 120000 kPa | 641.97 kg/m3
420 K, 140000 kPa | 653.97 kg/m3
420 K, 160000 kPa | 664.82 kg/m3
420 K, 180000 kPa | 674.63 kg/m3
420 K, 200000 kPa | 683.74 kg/m3
440 K, 3000 kPa | 412.99 kg/m3
440 K, 5000 kPa | 439.7 kg/m3
440 K, 10000 kPa | 474.4 kg/m3
440 K, 20000 kPa | 511.64 kg/m3
440 K, 30000 kPa | 535.46 kg/m3
440 K, 40000 kPa | 553.42 kg/m3
440 K, 50000 kPa | 568.08 kg/m3
440 K, 60000 kPa | 580.59 kg/m3
440 K, 70000 kPa | 591.44 kg/m3
440 K, 80000 kPa | 601.22 kg/m3
440 K, 90000 kPa | 610.1 kg/m3
440 K, 100000 kPa | 618.08 kg/m3
440 K, 120000 kPa | 632.51 kg/m3
440 K, 140000 kPa | 645.06 kg/m3
440 K, 160000 kPa | 656.44 kg/m3
440 K, 180000 kPa | 666.6 kg/m3
440 K, 200000 kPa | 676.01 kg/m3

Conditions | mass density [kg/m3] | vapor or sublimation pressure [kPa]
360 K | 544.8 | 538
380 K | 518.31 | 835
400 K | 487.34 | 1238
410 K | 469.93 | 1487
420 K | 450.21 | 1772
